Assay results as given in paper PMC5302928, “[^64Cu]XYIMSR-06: A dual-motif CAIX ligand for PET imaging of clear cell renal cell carcinoma” (Oncotarget, 2016).
“And” between values parts separate entries of the source, which are not always exact repeats. Equal values may be shown once.

Legend:
[1] = test system: CAIX-expressing SK-RC-52 ccRCC tumor xenografts; experiment: Biodistribution of [^64Cu]XYIMSR-06 in mice bearing SK-RC-52 xenografts; type: in vivo
Procedure: Animal experiments were performed in accordance with protocols approved by the Johns Hopkins Animal Care and Use Committee (ACUC). Six-week-old female NOD/SCID mice were purchased from the Animal Resource Core of the Sidney Kimmel Comprehensive Cancer Center of Johns Hopkins and were subcutaneously injected in the upper right flank with 1 × 10^6 SK-RC-52 cells in RPMI 1640 GlutaMAX™ media (Life Technologies, Frederick, MD) supplemented with 1% fetal bovine serum (FBS). Mice were monitored for tumor size and used for PET/CT imaging when the size of the tumor reached 100 mm^3.
Mice bearing SK-RC-52 xenografts within the upper right flank were injected intravenously with 740 kBq (20 μCi) of [^64Cu]XYIMSR-06 in 200 μL of PBS. For in vivo competition (binding specificity) studies, tumor-bearing mice were injected with 740 kBq (20 μCi) of [^64Cu]XYIMSR-06 and 200 nmole of 1 in 200 μL of PBS concurrently. At specific times after injection (1 h, 4 h, 8 h and 24 h), mice (n = 5) were sacrificed by cervical dislocation with blood immediately collected by cardiac puncture. Heart, lungs, pancreas, spleen, fat, brain, muscle, small intestines, liver, stomach, kidney, urinary bladder, and tumor were also collected. Each organ was weighed and the tissue radioactivity was measured with an automated gamma counter (1282 Compugamma CS, Pharmacia/ LKBNuclear, Inc., Mt. Waverly, Vic. Australia). The percentage of injected dose per gram of tissue (%ID/g) was calculated by comparison with samples of a standard dilution of the initial dose. All measurements were corrected for radioactive decay. Data are expressed as mean ± standard deviation (SD).

[2] = In vivo metabolism study, plasma radio-TLC; design: species or system NSG mice; conditions: for Percentage of intact radiotracer in plasma: 7.4 MBq i.v.
Procedure: PET acquisition times were: 5 min/bed (1 h) post-injection were developed using a mobile phase consisting of 45% of [Al18F]XYIMSR-04. PET images were co-registered acetonitrile, 55% water and 0.1% trifluoroacetic acid. The with the corresponding 360-slice CT images. Imaging TLC plate was dried and exposed to Kodak Biomax x-ray datasets were reconstructed using the 3D-FORE/2D-OSEM film (Fisher Scientific). Standard solutions had Rf value of iterative algorithm with 2 iterations and 16 subsets, using 0.6. The intensity of bans on the film were calculated with the manufacturer ’s software. Display of images utilized the Image J software (NIH, Bethesda, MD). The percentages Amide software (Dice Holdings, Inc. NY). The 1 h image of intact [64Cu]XYIMSR-06 in plasma were 86.2%, 98.3, is shown below (Supplementary Figure S2): and 100% for 0.5h, 1h, and 2h plasma samples, respectively.
Metabolism study REFERENCES
In vivo metabolism of [64Cu]XYIMSR-06 in NSG 1. Wichert M, Krall N, Decurtins W, Franzini RM, Pretto mice intravenously (tail vein) with 7.4 MBq (200 μCi) F, Schneider P, Neri D, Scheuermann J. Dual-display of [64Cu]XYIMSR-06 in 200 µL of PBS (pH = 7.0). One of small molecules enables the discovery of ligand pairs mouse was euthanized at 0.5, 1, and 2hr time points and facilitates affinity maturation. Nature chemistry. plasma was prepared by centrifugation of whole blood 2015;7:241-9. for 15 minutes at 2,500xg at 4°C. 5 uL of the plasma 2. D’Souza CA, McBride WJ, Sharkey RM, Todaro LJ, samples and control (7.4 kBq of [64Cu]XYIMSR-06) were Goldenberg DM. High-yielding aqueous 18F-labeling of spotted onto silica gel 60 RP-18 F254S glass TLC plates peptides via Al18F chelation. Bioconjugate chemistry.
(EMD Millipore Corp., Billerica, MA) and the plates 2011;22:1793-803. […]

[3] = 8 h+Block (co-injected 200 nmole of 1)
[4] = 24 h+Block (co-injected 200 nmole of 1)
[5] = one phase exponential decay fit

`CC(CCC(=O)NC(CC(=O)NC(CC(=O)NC(CCCCn1cc(CCCC(=O)Nc2nnc(S(N)(=O)=O)s2)nn1)C(=O)NCCOCCOCCNC(=S)Nc1ccc(CC2CN(CC(=O)O)CCN(CC(=O)[O-])CCN2CC(=O)[O-])cc1)C(=O)O)C(=O)O)(c1ccc(O)cc1)c1ccc(O)cc1.[64Cu+2]` (stereo not shown) [[^64Cu]XYIMSR-06] gave a Bladder uptake ([1]; 1 h) of 11.12±6.33 %ID/g, a Blood uptake ([1]; 1 h) of 0.66±0.05 %ID/g and a Brain uptake ([1]; 1 h) of 1.46±2.23 %ID/g. The Fat uptake ([1]; 1 h) was 0.80±0.17 %ID/g, the Heart uptake ([1]; 1 h) was 3.41±0.79 %ID/g and the “Kidney (kid) uptake” value ([1]; 1 h) was 33.65±3.91 %ID/g. For the same compound, the Liver uptake ([1]; 1 h) was 3.25±0.97 %ID/g, the Lung uptake ([1]; 1 h) was 25.52±3.35 %ID/g and the “Muscle (mm) uptake” value ([1]; 1 h) was 1.28±0.27 %ID/g. The Pancreas uptake ([1]; 1 h) was 2.94±0.24 %ID/g, the Sm. intestine uptake ([1]; 1 h) was 7.35±0.78 %ID/g and the Spleen uptake ([1]; 1 h) was 0.36±0.08 %ID/g. For the same compound, the Stomach uptake ([1]; 1 h) was 14.80±2.27 %ID/g, the Tumor uptake ([1]; 1 h) was 14.5 %ID/g and 14.47±2.69 %ID/g and the “Tumor/kid (kidney) ratio” value ([1]; 1 h) was 0.4±0.1. The “Tumor/mm (muscle) ratio” value ([1]; 1 h) was 10.8±3.7, the Bladder uptake ([1]; 4 h) was 17.05±8.86 %ID/g and the Blood uptake ([1]; 4 h) was 0.33±0.06 %ID/g. The Brain uptake ([1]; 4 h) was 0.29±0.06 %ID/g, the Fat uptake ([1]; 4 h) was 0.52±0.29 %ID/g and the Heart uptake ([1]; 4 h) was 1.78±0.33 %ID/g. For the same compound, the “Kidney (kid) uptake” value ([1]; 4 h) was 19.99±2.88 %ID/g, the Liver uptake ([1]; 4 h) was 2.18±0.57 %ID/g and the Lung uptake ([1]; 4 h) was 12.03±1.61 %ID/g. For the same compound, the “Muscle (mm) uptake” value ([1]; 4 h) was 0.70±0.18 %ID/g, the Pancreas uptake ([1]; 4 h) was 1.36±0.19 %ID/g and the Sm. intestine uptake ([1]; 4 h) was 4.15±0.69 %ID/g. For the same compound, the Spleen uptake ([1]; 4 h) was 0.24±0.04 %ID/g, the Stomach uptake ([1]; 4 h) was 8.19±0.97 %ID/g and the Tumor uptake ([1]; 4 h) was 19.3 %ID/g and 19.31±4.51 %ID/g. For the same compound, the Tumor/Blood ratio ([1]; 4 h) was 57.7±9.3, the “Tumor/kid (kidney) ratio” value ([1]; 4 h) was 1.0±0.1 and the “Tumor/mm (muscle) ratio” value ([1]; 4 h) was 29.4±9.9. The Bladder uptake ([1]; 8 h) was 7.43±7.72 %ID/g, the Blood uptake ([1]; 8 h) was 0.13±0.02 %ID/g and the Brain uptake ([1]; 8 h) was 0.24±0.06 %ID/g. For the same compound, the Fat uptake ([1]; 8 h) was 0.28±0.27 %ID/g, the Heart uptake ([1]; 8 h) was 0.65±0.10 %ID/g and the “Kidney (kid) uptake” value ([1]; 8 h) was 8.14±1.15 %ID/g. For the same compound, the Liver uptake ([1]; 8 h) was 0.99±0.22 %ID/g, the Lung uptake ([1]; 8 h) was 4.64±0.58 %ID/g and the “Muscle (mm) uptake” value ([1]; 8 h) was 0.21±0.05 %ID/g. The Pancreas uptake ([1]; 8 h) was 0.47±0.21 %ID/g, the Sm. intestine uptake ([1]; 8 h) was 1.98±0.14 %ID/g and the Spleen uptake ([1]; 8 h) was 0.18±0.02 %ID/g. For the same compound, the Stomach uptake ([1]; 8 h) was 4.02±0.53 %ID/g, the Tumor uptake ([1]; 8 h) was 16.74±1.58 %ID/g and the Tumor/Blood ratio ([1]; 8 h) was 129.6±18.8. The “Tumor/kid (kidney) ratio” value ([1]; 8 h) was 2.1 and 2.1 ± 0.3 and 2.1±0.26, the “Tumor/mm (muscle) ratio” value ([1]; 8 h) was 84.3±21.0 and the Bladder uptake [1, 3] was 1.45±1.53 %ID/g. The Blood uptake [1, 3] was 0.08±0.01 %ID/g, the Brain uptake [1, 3] was 0.04±0.01 %ID/g and the Fat uptake [1, 3] was 0.05±0.01 %ID/g. For the same compound, the Heart uptake [1, 3] was 0.16±0.03 %ID/g, the “Kidney (kid) uptake” value [1, 3] was 1.82±0.39 %ID/g and the Liver uptake [1, 3] was 0.55±0.08 %ID/g. The Lung uptake [1, 3] was 0.77±0.14 %ID/g, the “Muscle (mm) uptake” value [1, 3] was 0.05±0.02 %ID/g and the Pancreas uptake [1, 3] was 0.14±0.03 %ID/g. It also gave a Sm. intestine uptake [1, 3] of 0.38±0.06 %ID/g, a Spleen uptake [1, 3] of 0.14±0.02 %ID/g and a Stomach uptake [1, 3] of 0.69±0.18 %ID/g. For the same compound, the Tumor uptake [1, 3] was 2.39±0.24 %ID/g, the Tumor/Blood ratio [1, 3] was 32.0±3.8 and the “Tumor/kid (kidney) ratio” value [1, 3] was 1.3±10.2. For the same compound, the “Tumor/mm (muscle) ratio” value [1, 3] was 53.0±12.6, the “Effect of co-injection of 200 nmole of 1 on tumor uptake (binding specificity)” value ([1]; 8 h and 24 h) was “blocked tumor uptake” and the “All other tumor-to-organ ratios tested (other than kidney and lung)” value ([1]; 24 h) was no less than 10. The Bladder uptake ([1]; 24 h) was 0.34±0.09 %ID/g, the Brain uptake ([1]; 24 h) was 0.13±0.02 %ID/g and the Fat uptake ([1]; 24 h) was 0.03±0.01 %ID/g. For the same compound, the Heart uptake ([1]; 24 h) was 0.12±0.03 %ID/g, the “Kidney (kid) uptake” value ([1]; 24 h) was 0.90±0.12 %ID/g and the Liver uptake ([1]; 24 h) was 0.38±0.03 %ID/g. For the same compound, the Lung uptake ([1]; 24 h) was 1.27±0.38 %ID/g, the “Muscle (mm) uptake” value ([1]; 24 h) was 0.02±0.01 %ID/g and the Pancreas uptake ([1]; 24 h) was 0.21±0.29 %ID/g. The Sm. intestine uptake ([1]; 24 h) was 0.47±0.03 %ID/g, the Spleen uptake ([1]; 24 h) was 0.09±0.01 %ID/g and the Stomach uptake ([1]; 24 h) was 0.65±0.04 %ID/g. The Tumor uptake ([1]; 24 h) was 6.2 %ID/g and 6.23±1.41 %ID/g, the Tumor-to-lung ratio ([1]; 24 h) was 4.9 and the Tumor/Blood ratio ([1]; 24 h) was 142.6±115.8. For the same compound, the “Tumor/kid (kidney) ratio” value ([1]; 24 h) was 7.1 and 7.1±2.5, the Bladder uptake [1, 4] was 0.45±0.50 %ID/g and the Blood uptake [1, 4] was 0.01±0.08 %ID/g. It also gave a Brain uptake [1, 4] of 0.02±0.01 %ID/g, a Fat uptake [1, 4] of 0.01±0.01 %ID/g and a Heart uptake [1, 4] of 0.08±0.01 %ID/g. The “Kidney (kid) uptake” value [1, 4] was 0.48±0.09 %ID/g, the Liver uptake [1, 4] was 0.42±0.04 %ID/g and the Lung uptake [1, 4] was 0.29±0.05 %ID/g. For the same compound, the “Muscle (mm) uptake” value [1, 4] was 0.04±0.06 %ID/g, the Pancreas uptake [1, 4] was 0.07±0.02 %ID/g and the Sm. intestine uptake [1, 4] was 0.19±0.05 %ID/g. For the same compound, the Spleen uptake [1, 4] was 0.11±0.04 %ID/g, the Stomach uptake [1, 4] was 0.29±0.04 %ID/g and the Tumor uptake [1, 4] was 1.20±0.47 %ID/g. For the same compound, the Tumor/Blood ratio [1, 4] was 27.1±26.7, the “Tumor/kid (kidney) ratio” value [1, 4] was 2.4±0.4 and the “Tumor/mm (muscle) ratio” value [1, 4] was 49.0±28.7. For the same compound, the “Calculated half-life, Bladder” value [1, 5] was 116.2 h, the “Calculated half-life, Blood” value [1, 5] was 2.153 h and the “Calculated half-life, Brain” value [1, 5] was 0.860 h. The “Calculated half-life, Fat” value [1, 5] was 4.666 h, the “Calculated half-life, Heart” value [1, 5] was 2.293 h and the “Calculated half-life, Kidney” value [1, 5] was 3.591 h. The “Calculated half-life, Liver” value [1, 5] was 3.375 h, the “Calculated half-life, Lung” value [1, 5] was 2.542 h and the “Calculated half-life, Muscle” value [1, 5] was 3.035 h. For the same compound, the “Calculated half-life, Pancreas” value [1, 5] was 2.330 h, the “Calculated half-life, SK-RC-52 tumor” value [1, 5] was 996.1 h and the “Calculated half-life, Small intestine” value [1, 5] was 3.322 h. For the same compound, the “Calculated half-life, Spleen” value [1, 5] was 4.008 h, the “Calculated half-life, Stomach” value [1, 5] was 3.397 h and the “Radiotracer uptake within liver” value ([1]; within 24 h) was “no significant radiotracer uptake within liver”. The “Percentage of intact radiotracer in plasma” value (from here on “Percentage”) ([2]; 0.5h plasma sample) was 86.2%, the “Percentage” value ([2]; 1h plasma sample) was 98.3% and the “Percentage” value ([2]; 2h plasma sample) was 100%. For the same compound, the “In vivo stability by blood metabolites (radio thin layer chromatography)” value ([2]; post-injection) was “stable up to 2 h post-injection”.
